One data set can be described thus: acute toxicity LD50. It counts as in vivo, mice. The settings on record: for LD50: mouse, in vivo, ip, daily x9 injections, mice, 95% confidence interval given, read-out: LD 50 in mg/kg/inj i.p. in mice. An excerpt:
It appears therefrom that ala-sparsomycin is about 9× less toxic than sparsomycin.

The next data set relates to E. coli MRE600. The data set is described as follows: inhibition of bacterial growth. It counts as cell-based. As to the method: Inhibition of bacterial growth was tested in solid as well as in liquid medium. For the test on agar plates, petri dishes containing 15 ml of LB medium (10 g/l bactotryptone, 5 g/l yeast extract and 5 g/l NaCl) were covered with 5 ml of the same medium--kept melted at 40° C.--containing 40 μl of a culture of the required bacterium at approximately an A550 of 2. After solidification, 3 mm filter disks containing 4 μl of a 10 mM solution of the antibiotic in 50EtOH/DMSO were placed on the surface of the agar and the plates were incubated at 37° C. for 24 h. For the test in liquid medium, E. coli MRE600 was grown in LB medium supplemented with 0.2% of glucose to exponential phase (A560 =0.1) and distributed in 1 ml aliquots in tubes containing the required amount of antibiotic. The tubes were incubated at 37° C. for 4 h, subsequently diluted with 3 ml of 0.1% of sodium azide to stop growth and the absorption at 550 nm was measured. The absorption of the medium without addition of antibiotic was considered as 100% growth.

In the next data set the test system is P388 leukemia. Briefly: in vivo antitumor assay, P388 leukemia. Further details: species or system CDF1 mice. Here is the method: The antitumor activity of the present compounds has also been investigated by in vivo assays. In the assays, mice were treated for nine days in succession, starting at 24 hours after the time of tumor implant.
The results are shown in tables 4, 5 and 6 and represent the number of tumor-bearing mice surviving after administration of optimal doses of the test compound, expressed as a treatment/control (T/C×100%) ratio. In the tables, information is provided with respect to the sex, dose, weight loss of treated animals compared to control animals, and the number of survivors in groups of 6 mice.

For a further data set, the system named is whole reticulocytes. To be noted: attributed to being unable to penetrate these cells; cited from earlier work.
For data set [1] the following is noted: clinical tests (Cancer. Chemother. Rep. (1969), 43, 29); cited from earlier work.
Setting [2] is: female mice, ip daily x9, dose mg/kg: 2a 3.4.

Like-named read-outs stand apart in the source and are kept apart here.

On to `CSC[S@+]([O-])C[C@H](C)NC(=O)/C=C/c1c(C)[nH]c(=O)[nH]c1=O` [2a, (Sc Rs)-1-(methylthiomethyl)sulfinyl-2-[β-(6-methyl-5-uracilyl)acrylamido]-propane], for which, in the data set “acute toxicity LD50” (compared with sparsomycin, LD50 i.p. in mice), the “times less toxic than sparsomycin (LD50 ratio)” value was “about 9 ×”. In addition, the LD50 in “acute toxicity LD50” was found to be 2.33 mg/kg. Besides, in the data set on E. coli MRE600 (Escherichia coli, MRE600, 4 h, read-out: Growth inhibition E. coli MRE600 ED50), the IC50 stood at 5.6 µM. For the same molecule, the “T/C (survival, treatment/control x 100%)” value in the data set with P388 leukemia (female mice, ip daily x9, optimal dose mg/kg: 2a 3.4) was found to be 170%. Besides, in the data set with P388 leukemia (setting [2]), the “cures (survivors in groups of 6 mice)” value is 0/6 and the “weight loss (T - C)” value is recorded as -2.3 g.
In the case of `CSC[S@+]([O-])C[C@H](CO)NC(=O)/C=C/c1c(C)[nH]c(=O)[nH]c1=O` [Sparsomycin], the LD50 in “acute toxicity LD50” was found to be 0.26 mg/kg. Moreover, in the data set on whole reticulocytes, the “activity against whole reticulocytes” value is on record as “not active”. For the same molecule, the “toxicity revealed in clinical tests” value in data set [1] is “eye toxicity”. Also, the IC50 in the data set on E. coli MRE600 (Escherichia coli, MRE600, 4 h; read-out: Growth inhibition E. coli MRE600 ED50) was found to be 11 µM. Besides, the “T/C (survival, treatment/control x 100%)” value in the data set with P388 leukemia (male mice, ip daily x9, optimal dose mg/kg: sparsomycin 0.125, n-octyl 22.5, benzyl 2.0, 2e 20.0) was found to be 88%. Moreover, the “cures (survivors in groups of 6 mice)” value in the data set on P388 leukemia (male mice, ip daily x9, dose mg/kg: sparsomycin 0.125, n-octyl 22.5, benzyl 2.0, 2e 20.0) is given as 0/6. Besides, the “weight loss (T - C)” value in the data set on P388 leukemia (mouse, in vivo, ip) is -3.0 g.

The record behind these values is patent publication US4820712A, “Sparsomycin (SC-RS) compounds having antitumor activity, a process for their preparation and pharmaceutical compositions containing sparsomycin (SC-RS) compounds” (priority 1986, dated 1989).
